Laboratory results published in PubChem BioAssay AID1259407 (Chemical Carcinogenesis Research Information System (CCRIS), 2018).
Calls of active or inactive are those of the source. No rule for the calls is given here.

Tested on: CCRIS mutagenicity, Ames/micronucleus/aberration tests
Assay: CCRIS mutagenicity studies
[1] = Test System: AMES SALMONELLA TYPHIMURIUM, Strain/Indicator: TA98, Metabolic Activation: NONE, Method: PREINCUBATION
[2] = Test System: AMES SALMONELLA TYPHIMURIUM, Strain/Indicator: TA100, Metabolic Activation: NONE, Method: PREINCUBATION
[3] = Test System: AMES SALMONELLA TYPHIMURIUM, Strain/Indicator: TA100, Metabolic Activation: NONE, Method: STANDARD PLATE
[4] = Test System: AMES SALMONELLA TYPHIMURIUM, Strain/Indicator: TA98, Metabolic Activation: NONE, Method: STANDARD PLATE
[5] = Test System: AMES SALMONELLA TYPHIMURIUM, Strain/Indicator: TA98, Metabolic Activation: RAT, LIVER, S-9, AROCLOR 1254, Method: STANDARD PLATE
[6] = Test System: AMES SALMONELLA TYPHIMURIUM, Strain/Indicator: TA100, Metabolic Activation: RAT, LIVER, S-9, AROCLOR 1254, Method: STANDARD PLATE
[7] = Test System: AMES SALMONELLA TYPHIMURIUM, Strain/Indicator: TA1537, Metabolic Activation: NONE, Method: STANDARD PLATE
[8] = Test System: AMES SALMONELLA TYPHIMURIUM, Strain/Indicator: TA1537, Metabolic Activation: RAT, LIVER, S-9, AROCLOR 1254, Method: STANDARD PLATE

O=C(Cl)CCc1ccccc1
mutagenic call [1]: active; positive | mutagenic call (Test System: AMES SALMONELLA TYPHIMURIUM, Strain/Indicator: TA98, Metabolic Activation: RAT LIVER S-9, PCB, Method: PREINCUBATION): active; positive | mutagenic call [2]: active; positive | mutagenic call (Test System: AMES SALMONELLA TYPHIMURIUM, Strain/Indicator: TA100, Metabolic Activation: RAT LIVER S-9, PCB, Method: PREINCUBATION): active; positive | mutagenic call (Test System: AMES SALMONELLA TYPHIMURIUM, Strain/Indicator: TA104, Metabolic Activation: NONE, Method: PREINCUBATION): active; positive | mutagenic call (Test System: AMES SALMONELLA TYPHIMURIUM, Strain/Indicator: TA104, Metabolic Activation: RAT LIVER S-9, PCB, Method: PREINCUBATION): active; positive | mutagenic call (Test System: E.COLI, Strain/Indicator: WP2 UVRA, Metabolic Activation: NONE, Method: PREINCUBATION): inactive; negative | mutagenic call (Test System: E.COLI, Strain/Indicator: WP2 UVRA, Metabolic Activation: RAT LIVER S-9, PCB, Method: PREINCUBATION): active; positive

CC(C)(Br)C(=O)NCc1ccccc1
mutagenic call (Test System: AMES SALMONELLA TYPHIMURIUM, Strain/Indicator: TA100, Metabolic Activation: MOUSE, LIVER, S-9, AROCLOR 1254, Method: STANDARD PLATE): inactive; negative | mutagenic call [3]: inactive; negative

CCN(CC)CCNC(=O)c1ccc(N)cc1
mutagenic call (Test System: CHINESE HAMSTER V-79, Strain/Indicator: V-79 (HGPRT)/6-THIOGUANINE, Metabolic Activation: NONE): inactive; negative | mutagenic call (Test System: UDS HUMAN HEPATOCYTES, Strain/Indicator: THY INCORP, Metabolic Activation: NONE, Method: AUTORADIOGRAPHY): inactive; negative | mutagenic call (Test System: UDS RAT HEPATOCYTES, Strain/Indicator: THY INCORP, Metabolic Activation: NONE, Method: AUTORADIOGRAPHY): inactive; negative

c1ccc2cc3c4c(ccc3cc2c1)CCC1OC41 (centres undefined)
mutagenic call (Test System: CHINESE HAMSTER V-79, Strain/Indicator: V-79/8-AZAGUANINE, Metabolic Activation: NONE, Method: STANDARD PLATE): active; positive

C1CCC2OCCOCCOCCOC3CCCCC3OCCOCCOCCOC2C1 (centres undefined)
mutagenic call [4]: inactive; negative | mutagenic call [5]: inactive; negative | mutagenic call [3]: inactive; negative | mutagenic call [6]: inactive; negative | mutagenic call (Test System: AMES SALMONELLA TYPHIMURIUM, Strain/Indicator: TA1530, Metabolic Activation: NONE, Method: STANDARD PLATE): inactive; negative | mutagenic call (Test System: AMES SALMONELLA TYPHIMURIUM, Strain/Indicator: TA1530, Metabolic Activation: RAT, LIVER, S-9, AROCLOR 1254, Method: STANDARD PLATE): inactive; negative | mutagenic call [7]: inactive; negative | mutagenic call [8]: inactive; negative

COC[C@@H]1C=C2c3cccc4c3c(cn4C)C[C@H]2N(C)C1
mutagenic call [6]: active; positive

CCSCCSP(=S)(OC)OC
mutagenic call (Test System: AMES SALMONELLA TYPHIMURIUM, Strain/Indicator: TA97A, Metabolic Activation: NONE, Method: STANDARD PLATE): inactive; negative | mutagenic call (Test System: AMES SALMONELLA TYPHIMURIUM, Strain/Indicator: TA97A, Metabolic Activation: PLANT, HOMOGENATE, S-14, Method: STANDARD PLATE): inactive; negative | mutagenic call (Test System: AMES SALMONELLA TYPHIMURIUM, Strain/Indicator: TA97A, Metabolic Activation: S-9, Method: STANDARD PLATE): inactive; negative | mutagenic call [4]: inactive; negative | mutagenic call (Test System: AMES SALMONELLA TYPHIMURIUM, Strain/Indicator: TA98, Metabolic Activation: PLANT, HOMOGENATE, S-14, Method: STANDARD PLATE): inactive; negative | mutagenic call (Test System: AMES SALMONELLA TYPHIMURIUM, Strain/Indicator: TA98, Metabolic Activation: S-9, Method: STANDARD PLATE): inactive; negative | mutagenic call [3]: inactive; negative | mutagenic call (Test System: AMES SALMONELLA TYPHIMURIUM, Strain/Indicator: TA100, Metabolic Activation: PLANT, HOMOGENATE, S-14, Method: STANDARD PLATE): inactive; negative | mutagenic call (Test System: AMES SALMONELLA TYPHIMURIUM, Strain/Indicator: TA100, Metabolic Activation: S-9, Method: STANDARD PLATE): inactive; negative | mutagenic call (Test System: AMES SALMONELLA TYPHIMURIUM, Strain/Indicator: TA1535, Metabolic Activation: PLANT, HOMOGENATE, S-14, Method: STANDARD PLATE): inactive; negative | mutagenic call (Test System: AMES SALMONELLA TYPHIMURIUM, Strain/Indicator: TA1535, Metabolic Activation: S-9, Method: STANDARD PLATE): inactive; negative | mutagenic call (Test System: AMES SALMONELLA TYPHIMURIUM, Strain/Indicator: TA1535, Metabolic Activation: S-9 MIX, Method: STANDARD PLATE): active; positive

Cc1c(N)cccc1N=[N+]([O-])c1cccc(N)c1C
mutagenic call [1]: inactive; negative | mutagenic call (Test System: AMES SALMONELLA TYPHIMURIUM, Strain/Indicator: TA98, Metabolic Activation: RAT, LIVER, S-9, PHENOBARBITAL AND 5,6-BENZOFLAVONE, Method: PREINCUBATION): active; positive | mutagenic call [2]: inactive; negative | mutagenic call (Test System: AMES SALMONELLA TYPHIMURIUM, Strain/Indicator: TA100, Metabolic Activation: RAT, LIVER, S-9, PHENOBARBITAL AND 5,6-BENZOFLAVONE, Method: PREINCUBATION): inactive; negative

Cc1ccc2c(c1)-c1cc3ccccc3c3cc4ccccc4c-2c13
mutagenic call (Test System: AMES SALMONELLA TYPHIMURIUM, Strain/Indicator: TA100, Metabolic Activation: RAT, LIVER, S-9, 3-METHYLCHOLANTHRENE, Method: STANDARD PLATE): active; positive

N#CCCNCCC#N
mutagenic call (Test System: AMES SALMONELLA TYPHIMURIUM, Strain/Indicator: TA98, Metabolic Activation: HAMSTER, LIVER, S-9, AROCLOR 1254, Method: STANDARD PLATE): inactive; negative | mutagenic call [4]: inactive; negative | mutagenic call [5]: inactive; negative | mutagenic call (Test System: AMES SALMONELLA TYPHIMURIUM, Strain/Indicator: TA100, Metabolic Activation: HAMSTER, LIVER, S-9, AROCLOR 1254, Method: STANDARD PLATE): inactive; negative | mutagenic call [3]: inactive; negative | mutagenic call [6]: inactive; negative | mutagenic call (Test System: AMES SALMONELLA TYPHIMURIUM, Strain/Indicator: TA1535, Metabolic Activation: HAMSTER, LIVER, S-9, AROCLOR 1254, Method: STANDARD PLATE): inactive; negative | mutagenic call (Test System: AMES SALMONELLA TYPHIMURIUM, Strain/Indicator: TA1535, Metabolic Activation: NONE, Method: STANDARD PLATE): inactive; negative | mutagenic call (Test System: AMES SALMONELLA TYPHIMURIUM, Strain/Indicator: TA1535, Metabolic Activation: RAT, LIVER, S-9, AROCLOR 1254, Method: STANDARD PLATE): inactive; negative | mutagenic call (Test System: AMES SALMONELLA TYPHIMURIUM, Strain/Indicator: TA1537, Metabolic Activation: HAMSTER, LIVER, S-9, AROCLOR 1254, Method: STANDARD PLATE): inactive; negative | mutagenic call [7]: inactive; negative | mutagenic call [8]: inactive; negative | mutagenic call (Test System: AMES SALMONELLA TYPHIMURIUM, Strain/Indicator: TA1538, Metabolic Activation: HAMSTER, LIVER, S-9, AROCLOR 1254, Method: STANDARD PLATE): inactive; negative | mutagenic call (Test System: AMES SALMONELLA TYPHIMURIUM, Strain/Indicator: TA1538, Metabolic Activation: NONE, Method: STANDARD PLATE): inactive; negative | mutagenic call (Test System: AMES SALMONELLA TYPHIMURIUM, Strain/Indicator: TA1538, Metabolic Activation: RAT, LIVER, S-9, AROCLOR 1254, Method: STANDARD PLATE): inactive; negative | mutagenic call (Test System: MOUSE LYMPHOMA, Strain/Indicator: L5178Y (TK+/TK-), Metabolic Activation: NONE, Method: SUSPENSION/PLATE): inactive; negative. reevaluation of results: negative | mutagenic call (Test System: MOUSE LYMPHOMA, Strain/Indicator: L5178Y (TK+/TK-), Metabolic Activation: RAT, LIVER, S-9, AROCLOR 1254, Method: SUSPENSION/PLATE): active; positive. reevaluation of results: equivocal

O=C(/C=C/c1ccccc1)c1ccc(-c2ccccc2)cc1
mutagenic call [4]: inactive; negative | mutagenic call [5]: inactive; negative | mutagenic call [3]: inactive; negative | mutagenic call [6]: inactive; negative

CCOc1ccccc1C(N)=O
mutagenic call (End Point: IN VITRO CHROMOSOMAL ABERRATIONS, Test System: CHL/IU CELLS, Metabolic Activation: NONE): active; positive (structural changes) | mutagenic call (End Point: IN VITRO MICRONUCLEUS, Test System: CHL/IU CELLS, Metabolic Activation: NONE): active; positive

Oc1cccc2c1-c1cc3cccc4ccc5ccc-2c1c5c43
mutagenic call [6]: active; positive
